{
  "source": "patent US20250222017A1",
  "about": "“METHODS OF USING AVERMECTIN COMPOSITIONS FOR THE TREATMENT OF NEUROLOGICAL DISORDERS AND DOSING REGIMENS” (priority 2022, published 2025)",
  "key": {"focal seizures": {"system": "focal seizures", "settings": "cited from earlier work"}, "[1]": {"system": "pentylenetetrazol (PTZ)-induced ictal brain activity", "test": "Modulation of PTZ-induced seizures, BOLD fMRI", "format": "in vivo, male Wistar rats", "settings": "positive control, Wistar rats", "experimental": "Functional MRI (fMRI) was performed using a high-field preclinical MRI system in anesthetized male Wistar rats in order to determine the modulation of pentylenetetrazol (PTZ)-induced ictal brain activity by chronic treatment with test compound (TC). […] Vehicle and 3 mg/kg Alprazolam served as controls (see, Table 11). Seizures were induced with PTZ in each experimental group. A schematic of the study design can be seen in FIG. 6. Various physiological parameters were also measured throughout the experiment including body weight, CO2 levels, blood pH, and heart rate. […] Vehicle and 3 mg/kg Alprazolam served as controls (see, Table 12)."}, "spasms": {"system": "spasms", "test": "Two-stage model of infantile spasms (NMDA-induced)", "format": "in vivo, Sprague-Dawley rats", "settings": "spasms triggered on P15, rats", "text": "A two-stage model of infantile spasms was developed (FIG. 19A). Pregnant Sprague-Dawley rats receive two injections of betamethasone on gestational (G) day 15. Offspring of those pregnancies are used for experiments during infancy, postnatal days (P) 10-15. Spasms are induced by i.p. injection of N-methyl-D-aspartic acid (NMDA), which is graded depending on the postnatal age of the subjects.\nDays of dosing were P10, P11, P12, P13, P14 and P15."}, "human CD4+ T cells": {"system": "human CD4+ T cells", "test": "Human CD4+ T cells activated under Th17 skewing conditions, in vitro", "format": "cell-based", "settings": "data not shown"}, "EAE": {"system": "EAE", "test": "Experimental autoimmune encephalomyelitis (EAE) model of MS", "format": "in vivo", "settings": "EAE in C57BL/6 mice; 1, 2, 4 mg/kg oral once daily, Day 14 to Day 34", "procedure": "EAE is induced in C57BL/6 mice by immunization with MOG35-55 or MOG1-12s in CFA emulsion followed by administration of pertussis toxin (PTX) in PBS. […] Fingolimod (FTY720, Gilenya) is the most commonly used positive control in this model.\nVehicle was 1.6% DMSO in water. […] These were frozen at −20° C. Every 3 to 4 days, one aliquot was thawed and diluted with water to create a fine suspension at 0.8 mg/mL (for 4 mg/kg dosing). Final DMSO concentration was 1.6%. […] FTY720 stock solution (30 mg/mL in ethanol) was prepared for all ongoing studies. Daily, the FTY720 stock solution was diluted with water to the final dosing concentration of 0.6 mg/mL.\nEAE was induced on Day 0 by myelin oligodendrocyte glycoprotein (MOG35-55)/complete Freund's adjuvant (CFA) immunization, followed by pertussis toxin (PTX) injections on Days O and 1. Treatment was therapeutic, starting on Day 14. […] Treatment continued through Day 34. Mice were observed through the end of the study, Day 35.\nClinical scores were assessed as follows: 1=limp tail, 2=partial hind leg paralysis, 3=complete hind leg paralysis, 4=complete hindleg and partial front leg paralysis; 5=moribund."}},
  "note": "“Also recorded” adds a separate entry of the source. Like-named read-outs stand apart in the source and are kept apart here.",
  "data": [
    {"compound": "NC(=O)N1c2ccccc2C[C@H](O)c2ccccc21", "note": "[APTIOM, Eslicarbazepine]", "values": [
      {"measurement": "Placebo-adjusted >50% Focal Seizure Reduction", "setting": "focal seizures; 1200 mg", "value": 20, "unit": "%"},
      {"measurement": "Placebo-adjusted Median Reduction in Focal Seizure Frequency", "setting": "focal seizures; 2000 mg", "value": "14-24%"}
    ]},
    {"compound": "Cc1nnc2n1-c1ccc(Cl)cc1C(c1ccccc1)=NC2", "note": "[Alprazolam]", "values": [
      {"measurement": "PTZ-induced brain activity (BOLD fMRI)", "setting": "[1]; 3 mg/kg i.p., 1 dose, 3 mg/kg", "value": "effectively cancelled PTZ-induced brain activity; also recorded: Vehicle vs. Alprazolam in all"}
    ]},
    {"compound": "CCC[C@@H]1CC(=O)N([C@@H](CC)C(N)=O)C1", "note": "[BRIVIACT, Brivaracetam]", "values": [
      {"measurement": "Placebo-adjusted >50% Focal Seizure Reduction", "setting": "focal seizures; 200 mg", "value": 18, "unit": "%"},
      {"measurement": "Placebo-adjusted Median Reduction in Focal Seizure Frequency", "setting": "focal seizures; 200 mg", "value": 26, "unit": "%"}
    ]},
    {"compound": "CN1C(=O)CN=C(c2ccccc2)c2cc(Cl)ccc21", "note": "[Diazepam]", "values": [
      {"measurement": "PTZ-induced brain activity (BOLD fMRI)", "setting": "[1]; dose not given", "value": "effectively cancelled PTZ-induced brain activity"}
    ]},
    {"compound": "CC[C@@H](C(N)=O)N1CCCC1=O", "note": "[KEPPRA, Leviteracetam]", "values": [
      {"measurement": "Placebo-adjusted >50% Focal Seizure Reduction", "setting": "focal seizures; 3000 mg", "value": 29, "unit": "%"},
      {"measurement": "Placebo-adjusted Median Reduction in Focal Seizure Frequency", "setting": "focal seizures; 3000 mg", "value": "23-31%"}
    ]},
    {"compound": "COC[C@@H](NC(C)=O)C(=O)NCc1ccccc1", "note": "[VIMPAT, Lacosamide]", "values": [
      {"measurement": "Placebo-adjusted >50% Focal Seizure Reduction", "setting": "focal seizures; 400 mg", "value": 17, "unit": "%"},
      {"measurement": "Placebo-adjusted Median Reduction in Focal Seizure Frequency", "setting": "focal seizures; 400 mg", "value": "15-29%"}
    ]},
    {"compound": "NC(=O)O[C@@H](Cn1ncnn1)c1ccccc1Cl", "note": "[XCOPRI, Cenobamate]", "values": [
      {"measurement": "Placebo-adjusted >50% Focal Seizure Reduction", "setting": "focal seizures; 400 mg", "value": 39, "unit": "%"},
      {"measurement": "Placebo-adjusted Median Reduction in Focal Seizure Frequency", "setting": "focal seizures; 4200 mg", "value": 31, "unit": "%"}
    ]},
    {"compound": "Cc1cc(N2CCc3cc(F)ccc3C2)cc(C)c1NC(=O)CC(C)(C)C", "note": "[XEN1101]", "values": [
      {"measurement": "Placebo-adjusted >50% Focal Seizure Reduction", "setting": "focal seizures; 25 mg", "value": 40, "unit": "%"},
      {"measurement": "Placebo-adjusted Median Reduction in Focal Seizure Frequency", "setting": "focal seizures; 25 mg", "value": 35, "unit": "%"}
    ]},
    {"compound": "ivermectin", "values": [
      {"measurement": "occurrence of spasms in comparison to controls (vehicle)", "setting": "spasms; 2 mg/kg i.p. daily P10-P15", "value": "significantly suppressed occurrence of spasms; also recorded: significantly fewer spasms"},
      {"measurement": "occurrence of spasms in comparison to controls (vehicle)", "setting": "spasms; 4 mg/kg i.p. daily P10-P15", "value": "significantly suppressed occurrence of spasms; also recorded: significantly fewer spasms"},
      {"measurement": "FoxP3 mRNA levels", "setting": "human CD4+ T cells", "value": "up-regulation"},
      {"measurement": "increase in the percentage of Foxp3+ T cells", "setting": "human CD4+ T cells", "value": 50, "unit": "%"},
      {"measurement": "limb paralysis (clinical score)", "setting": "EAE", "value": "significantly downregulates"}
    ]}
  ]
}
